Results: patent US6800674B2, “Anthraquinone compound and water-based ink-jet recording ink containing the compound” (Mitsui Chemicals, Inc., priority 2000, dated 2004)

Assays:
Assay type in all cases: physicochemical
[1] = Evaluation of emulsification (visual, in production of emulsion ink); details: ink produced as in Example 1
Protocol: (§1) Glycerin and water were added to the dispersion (A) of colored resin fine particles to obtain aqueous ink having a solid content of 15% by weight. This aqueous ink was used, and filled in an ink cartridge for a piezo-type ink jet printer, and printing and image recording were conducted with the same printer. The test was conducted on the following items.
(A) Evaluation of Emulsification
The emulsification condition in the production of emulsion ink was visually observed, and evaluated.

[2] = Evaluation of water resistance (OD1 after/before dipping in water); details: aqueous ink, OD1 after dipping in water and air-drying
Protocol: as §1
(D) Evaluation of Water Resistance
With respect to a printed portion of a plain paper having a recorded image thereon for test, printing density (OD value) was measured with a reflection densitometer before dipping in water and after dipping in water and air-drying. Water resistance was evaluated upon comparing OD1.
OD1=(OD value after dipping in water and air-drying)/(OD value before dipping in water)×100[%]

[3] = Solvent solubility of the coloring matter; details: for solubility of the coloring matter (in words): ink produced as in Example 1
[4] = Evaluation of light fastness (xenon fadeometer, OD2); details: for E (Evaluation of light fastness): aqueous ink, ink production process Example 1, OD2 after 100 hours of irradiation
Protocol: as §1
(E) Evaluation of Light Fastness
Printing density (OD value) was measured using a xenon fadeometer (manufactured by Suga Shikenki) before irradiation and after 100 hours of irradiation. Light fastness was evaluated upon comparing OD2.
OD2=(OD value after irradiation)/(OD value before irradiation)×100[%]

[5] = Absorption in toluene solution
[6] = Evaluation of light fastness (xenon fadeometer, OD2); details: aqueous ink, ink production process Example 2; OD2 after 100 hours of irradiation
[7] = ink production process Example 1
[8] = ink production process Example 2

D (Evaluation of water resistance) [2, 7]	solubility of the coloring matter (in words) [3]	E (Evaluation of light fastness) [4]	light fastness (in words) [4]	D (Evaluation of water resistance) [2, 8]	solubility in toluene ([3]; toluene, room temperature)	gram absorption coefficient (εg) [5]	maximum absorption wavelength (λmax) [5]	E (Evaluation of light fastness) [6]	Compound	evaluation of emulsification (in words) [1]
Δ (OD value is 50 to less than 70%.)	low	X (OD value is less than 50%.)	extremely bad						COc1cc(N)c2c(c1N)C(=O)c1ccccc1C2=O [Comparative Example 2, reference compound]	
◯ (OD value is 70 to less than 80%.)	low	X (OD value is less than 50%.)	extremely bad						CNc1cccc2c1C(=O)c1ccccc1C2=O [Comparative Example 3, reference compound]	
⊚⊚ (OD value is 90 to 100%.)		⊚⊚ (OD value is 90 to 100%.)		⊚⊚ (OD value is 90 to 100%.)	≥ 40%	30,200 ml/g·cm	517 nm	⊚⊚ (OD value is 90 to 100%.)	CCCCN(CCCC)c1cccc(Oc2cc(O)c3c(c2N)C(=O)c2ccccc2C3=O)c1 [compound 9]	
⊚ (OD value is 80 to less than 90%.)		⊚ (OD value is 80 to less than 90%.)		⊚ (OD value is 80 to less than 90%.)				⊚ (OD value is 80 to less than 90%.)	CCN(CC)c1cccc(Oc2cc(O)c3c(c2N)C(=O)c2ccc(OC)cc2C3=O)c1 [compound 16]	
⊚⊚ (OD value is 90 to 100%.)		⊚⊚ (OD value is 90 to 100%.)		⊚⊚ (OD value is 90 to 100%.)				⊚⊚ (OD value is 90 to 100%.)	CCCCCCN(CCCCCC)c1cccc(Oc2cc(O)c3c(c2N)C(=O)c2cccc(C)c2C3=O)c1 [compound 18]	

Compound	D (Evaluation of water resistance) [2, 7]	solubility of the coloring matter (in words) [3]	E (Evaluation of light fastness) [4]	light fastness (in words) [4]	D (Evaluation of water resistance) [2, 8]	solubility in toluene ([3]; toluene, room temperature)	gram absorption coefficient (εg) [5]	maximum absorption wavelength (λmax) [5]	E (Evaluation of light fastness) [6]	evaluation of emulsification (in words) [1]
O=C1c2ccccc2C(=O)c2c1ccc(O)c2O [Comparative Example 1, reference compound]	X (OD value is less than 50%.)	low	X (OD value is less than 50%.)							poor emulsification
